{
  "source": "patent US9067900B2",
  "about": "“Diaminophenothiazine compounds, a method for preparing same and uses thereof” (PHARMA HYDRO DEVELOPMENT—P.H.D., priority 2007, dated 2015)",
  "key": {"[1]": {"tested_on": "Legionella pneumophila subsp pneumophila CIP 103 854", "format": "cell-based", "conditions": "100 mg/l in distilled water, contact time 15 to 30 mn; dichlorhydrate solution"}, "[2]": {"tested_on": "Pseudomonas aeruginosa CIP 103 467", "assay": "Biocidal activity test according to EN standards (EN 1040, EN 1275)", "format": "cell-based", "conditions": "50 to 100 mg/l in distilled water, contact time 15 to 30 mn"}, "[3]": {"tested_on": "Escherichia coli CIP 54 127", "assay": "Biocidal activity test according to EN standards (EN 1040, EN 1275)", "format": "cell-based", "conditions": "50 to 100 mg/l in distilled water, contact time 15 to 30 mn"}, "[4]": {"tested_on": "Candida albicans IP 48.72", "assay": "Biocidal activity test according to EN standards (EN 1040, EN 1275)", "format": "cell-based", "conditions": "under light", "procedure": "The biocidal tests were carried out according to Directive NF EN 1040. Tests were conducted at the same time in the dark and under white light, corresponding to a moderate sunshine (400 KJ/M2) using an ordinary incandescent or halogen lamp. Some tests may be carried out up to 1.3 mW/Cm^2 […] The color change is all the more fast that the solution is illuminated under white light. The tests are performed in sterile glass flasks according to disinfection test standards. Illumination is a sun light illumination or an artificial light illumination and is compared with tests carried out in the dark (glass material is wrapped with aluminium foil). Biocidal activity tests are carried out according to EN standards, for example EN 1040, EN 1275, on reference microbial strains registered under ATCC and CIP, and validated by an accredited laboratory. […] These tests validate as biocide agents as defined by the European pharmacopoeia if the infectious titer reduction is higher than 5. Tests are carried out under white light versus a control in the dark. In all cases, white light accelerates the biocidal phenomenon, for example the biocidal activity under light requires a 15 min-contact time, as opposed to 30 mn in the dark. It should be noted that the DAP 2,8 series may have a “range effect”, that is to say there is a concentration range that is more efficient as compared to higher concentrations."}, "[5]": {"tested_on": "albino rabbits", "assay": "Skin irritation/corrosion, OCDE 404 classification", "format": "in vivo", "conditions": "100 mg/l to 1000 mg/l"}, "[6]": {"tested_on": "albino rabbits", "assay": "Eye irritation/corrosion, OCDE 405 classification", "format": "in vivo", "conditions": "100 mg/l to 1000 mg/l"}},
  "data": [
    {"smiles": "CCCCN(CCCC)c1ccc2c(c1)Nc1cc(N3CCN(C)CC3)ccc1S2", "note": "[Example 11, N,N-Dibutyl-[8-(4-methylpiperazin-1-yl)-10H-phenothiazin-2-yl]amine]", "values": [
      {"measurement": "melting point", "result": "150 to 152", "unit": "°C"}
    ]},
    {"smiles": "CN(C)c1ccc2c(c1)Nc1cc(N(C)C)ccc1S2", "note": "[Example 1, N,N,N′,N′-tetramethyl-10H-phenothiazine-2,8-diamine]", "values": [
      {"measurement": "Infectious titer reduction (log)", "setting": "[1]", "result": ">5.5", "unit": "log"},
      {"measurement": "Infectious titer reduction (log)", "setting": "[2]", "result": ">5.5", "unit": "log"},
      {"measurement": "Infectious titer reduction (log)", "setting": "[3]", "result": ">5.5", "unit": "log"},
      {"measurement": "Infectious titer reduction (log)", "setting": "[4]; 100 mg/l in distilled water, contact time 30 mn", "result": 3.2, "unit": "log"},
      {"measurement": "Infectious titer reduction", "setting": "[4]; 250 or 500 mg/l, 30 mn of contact", "result": "< 2.8", "unit": "log"},
      {"measurement": "irritant or corrosive activity, skin", "setting": "[5]", "result": "non-irritant"},
      {"measurement": "irritant or corrosive activity, eyes", "setting": "[6]", "result": "non-irritant"}
    ]},
    {"smiles": "CCCN(CCC)c1ccc2c(c1)Nc1cc(N3CCN(C)CC3)ccc1S2", "note": "[Example 8, [8-(4-Methyl-piperazin-1-yl)-10H-phenothiazin-2-yl]-dipropylamine]", "values": [
      {"measurement": "melting point", "result": "122 to 124", "unit": "°C"}
    ]},
    {"smiles": "CCCNc1ccc2c(c1)Nc1cc(N(C)C)ccc1S2", "note": "[Example 13, N,N-Dimethyl-N′-propyl-10H-phenothiazine-2,8-diamine]", "values": [
      {"measurement": "melting point", "result": "158 to 160", "unit": "°C"}
    ]}
  ]
}
